In US9896434B2, “Substituted indanone compounds as GPR119 modulators for the treatment of diabetes, obesity, dyslipidemia and related disorders” (SANOFI, priority 2014, dated 2018):

target: T1, human GPR119 (Homo sapiens, UniProt Q8TDV5); experiment: Functional cellular assay measuring GPR119-mediated cAMP release (HTRF); type: cell-based; details: HEK-293 cell line stably expressing recombinant human GPR119; cAMP response, 30 minutes at room temperature
T1 construct: expressed in transfected cells
T1 sequence (Q8TDV5 1-335): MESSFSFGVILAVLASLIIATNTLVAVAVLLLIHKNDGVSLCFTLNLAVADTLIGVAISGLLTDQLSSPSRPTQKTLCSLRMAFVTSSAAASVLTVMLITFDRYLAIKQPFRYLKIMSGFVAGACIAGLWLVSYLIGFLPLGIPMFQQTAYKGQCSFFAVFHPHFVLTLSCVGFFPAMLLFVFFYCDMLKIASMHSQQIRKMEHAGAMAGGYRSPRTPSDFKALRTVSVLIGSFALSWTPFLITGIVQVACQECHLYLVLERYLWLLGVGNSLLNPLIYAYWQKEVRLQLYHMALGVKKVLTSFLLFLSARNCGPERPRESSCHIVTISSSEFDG
Description: Functional Cellular Assays Measuring GPR119-Mediated cAMP Release
Compounds of the invention, which are agonists of GPR119, were characterized by functional assays measuring the cAMP response of HEK-293 cell lines stably expressing recombinant GPR119 from man, mouse or rat, or by using a hamster cell line HIT-T15 expressing GPR119 endogenously. The cAMP content was determined using a kit based on homogenous time-resolved fluorescence (HTRF) from Cisbio Corp. (cat. no. 62AM4PEC). For preparation, cells were split into T175 culture flasks and grown to near confluency in medium (DMEM/10% FCS for HEK-293 cells, and F-12K medium/10% horse serum/2.5% FCS for HIT-T15 cells, respectively). Medium was then removed and cells washed with PBS lacking calcium and magnesium ions, followed by proteinase treatment with accutase (Sigma-Aldrich, cat. no. A6964). Detached cells were washed and resuspended in assay buffer (1×HBSS; 20 mM HEPES, 0.1% BSA, 2 mM IBMX) and cellular density determined. They were then diluted to 400000 cells/mL and 25 μL-aliquots dispensed to the wells of 96-well plates. For measurement, 25 μL of test compound in assay buffer was added and incubated for 30 minutes at room temperature. After addition of HTRF reagents diluted in lysis buffer, the plates were incubated for 1 hour, followed by measuring the fluorescence ratio at 665 vs. 620 nm. Potency of the agonists was quantified by determining the concentrations that caused 50% of the maximal response/activation (EC50). See Table 4 for exemplary data obtained using the cell line expressing human GPR119.

Structure (SMILES)	EC50
O=C1CC(CCO)c2ccc(N3CC[C@@H](Oc4ccc(Oc5ccc(F)cc5)nc4)C3=O)cc21 (stereo partly drawn) [Example 1-01, (3R)-3-[[6-(4-Fluorophenoxy)-3-pyridyl]oxy]-1-[1-(2-hydroxyethyl)-3-oxo-indan-5-yl]pyrrolidin-2-one]	311 nM
COC(=O)CC1Cc2ccc(N3CCC(Oc4ccc(OCCC(C)C)cc4)C3=O)cc2C1=O (stereo not shown) [Example 1-02, methyl 2-[6-[3-(4-isopentyloxyphenoxy)-2-oxo-pyrrolidin-1-yl]-1-oxo-indan-2-yl]acetate]	262 nM
COC(=O)CC1CC(=O)c2cc(N3CC[C@@H](Oc4ccc(Oc5ccc(F)cc5)cc4)C3=O)ccc21 (stereo partly drawn) [Example 1-03, methyl 2-[5-[(3R)-3-[4-(4-fluorophenoxy)phenoxy]-2-oxo-pyrrolidin-1-yl]-3-oxo-indan-1-yl]acetate]	111 nM
COC(=O)CC1Cc2c(F)cc(N3CC[C@@H](Oc4ccc(OCC5CC5)nc4)C3=O)cc2C1=O (stereo partly drawn) [Example 1-04, {6-[(R)-3-(6-cyclopropylmethoxy-pyridin-3-yloxy)-2-oxo-pyrrolidin-1-yl]-4-fluoro-1-oxo-indan-2-yl}-acetic acid methyl ester]	14 nM
O=C1c2cc(N3CC[C@@H](Oc4ccc(OCC5CC5)nc4)C3=O)cc(F)c2CC1CCO (stereo partly drawn) [Example 1-05, (3R)-3-[[6-(cyclopropylmethoxy)-3-pyridyl]oxy]-1-[7-fluoro-2-(2-hydroxyethyl)-3-oxo-indan-5-yl]pyrrolidin-2-one]	233 nM
COC(=O)CC1CC(=O)c2cc(N3CC[C@@H](Oc4ccc(OCC5CC5)nc4)C3=O)ccc21 (stereo partly drawn) [Example 1-06, methyl 2-[5-[(3R)-3-[[6-(cyclopropylmethoxy)-3-pyridyl]oxy]-2-oxo-pyrrolidin-1-yl]-3-oxo-indan-1-yl]acetate]	19 nM
COC(=O)CC1(CC(=O)O)Cc2c(F)cc(N3CC[C@@H](Oc4ccc(OCC5CC5)nc4)C3=O)cc2C1=O (stereo partly drawn) [Example 1-07, 2-[6-[(3R)-3-[[6-(cyclopropylmethoxy)-3-pyridyl]oxy]-2-oxo-pyrrolidin-1-yl]-4-fluoro-2-(2-methoxy-2-oxo-ethyl)-1-oxo-indan-2-yl]acetic acid]	332 nM
O=C1CC(CCO)c2ccc(N3CC[C@@H](Oc4ccc(OCC5CC5)nc4)C3=O)cc21 (stereo partly drawn) [Example 1-08, (3R)-3-[[6-(cyclopropylmethoxy)-3-pyridyl]oxy]-1-[1-(2-hydroxyethyl)-3-oxo-indan-5-yl]pyrrolidin-2-one]	79 nM
COC(=O)CC1CC(=O)c2cc(N3CC[C@@H](Oc4ccc(OCC5CC5)nc4)C3=O)cc(F)c21 (stereo partly drawn) [Example 1-09, methyl 2-[5-[(3R)-3-[[6-(cyclopropylmethoxy)-3-pyridyl]oxy]-2-oxo-pyrrolidin-1-yl]-7-fluoro-3-oxo-indan-1-yl]acetate]	12 nM
COC(=O)C1Cc2ccc(N3CC[C@@H](Oc4ccc(OCC5CC5)nc4)C3=O)cc2C1=O (stereo partly drawn) [Example 1-10, methyl 6-[(3R)-3-[[6-(cyclopropylmethoxy)-3-pyridyl]oxy]-2-oxo-pyrrolidin-1-yl]-1-oxo-indane-2-carboxylate]	41 nM
COC(=O)CC1CC(=O)c2cc(N3CC[C@@H](Oc4ccc(OC5CC5)nc4)C3=O)cc(F)c21 (stereo partly drawn) [Example 1-11, methyl 2-[5-[(3R)-3-[[6-(cyclopropoxy)-3-pyridyl]oxy]-2-oxo-pyrrolidin-1-yl]-7-fluoro-3-oxo-indan-1-yl]acetate]	38 nM
COC(=O)CC1Cc2ccc(N3CC[C@@H](Oc4ccc(OCC5CC5)nc4)C3=O)cc2C1=O (stereo partly drawn) [Example 1-12, methyl 2-[6-[(3R)-3-[[6-(cyclopropylmethoxy)-3-pyridyl]oxy]-2-oxo-pyrrolidin-1-yl]-1-oxo-indan-2-yl]acetate]	29 nM
COC(=O)CC1CC(=O)c2cc(N3CC[C@@H](Oc4ccc(OC5CC5)nc4)C3=O)ccc21 (stereo partly drawn) [Example 1-13, methyl 2-[5-[(3R)-3-[[6-(cyclopropoxy)-3-pyridyl]oxy]-2-oxo-pyrrolidin-1-yl]-3-oxo-indan-1-yl]acetate]	98 nM
